Measured values taken from patent US5384406A, “Water-soluble biologically active ammonium salts” (ISP Investments Inc., priority 1993, dated 1995).
Read-outs that look alike come from different tables or passages of the source.

Experiments:
solubility in water = experiment: solubility in water
Protocol: Example 1 was repeated, except that 2 g of heavy water replaced 150 g of methanol solvent, 0.3 g of Dicamba replaced 30 g Dicamba and 0.16 g of AEP replaced 15.8 g of AEP.
(§1) In a 250 ml round bottom flask 15.5 g (0.482 millimole) of a commercial herbicide, imazaquin* (97.4% pure, having an average molecular weight of 311.4) was suspended in 100 g water. To the suspension, 6.1 g (0.469 millimole) of 98.5% pure AEP was added. […] 2-[4,5-dihydro-4-methyl-4-(methylethyl)-5-oxo-1H-imidazol-2-yl]-3-quinoline e carboxylic acid.
To a solution containing 13 g (0.1 mole) AEP (98.5% pure) dissolved in 30 g water in a 100 ml round bottom flask was added at 25° C. and with constant agitation, 16.9 g (0.1 mole) of water insoluble solid phosphonomethyl glycine.
To one liter of water was added 15.42 g of 2,4 D+7.11 g of mecoprop +1.83 g of 90% pure dicamba. After which 13.83 g AEP was added to the mixture. […] To the above solution was added 9 g of polyalkylene oxide modified by polydimethyl siloxane (Silvelt 7607 wetting agent) from Union Carbide. The mixture was stirred and the total weight was adjusted to 3000 g by adding water.

[1] = Protocol: A solution containing 25 g of the AEP salt of commercial imazaquin in water was prepared from a suspension of 25 g of imazaquin in 50 g water to which was added a stoichiometric amount of AEP (10.2 g) and an additional 15 g of water. The solution was stirred for 30 minutes after which it was filtered and the pH of the filtrate was adjusted to 7.2.
[2] = aqueous solution after filtration, not adjusted
Protocol: as §1

[3] = tested on: broad leaf plants and perennial weeds; experiment: evaluation as aquatic herbicide and broad spectrum growth inhibitor, compared with the isopropyl amine salt of phosphonomethyl glycine; assay type: in vivo
Protocol: A suspension of 169 g of phosphonomethyl glycine in 301 g water was prepared and 130 g 98.5% pure AEP was added slowly with stirring until all of the phosphonomethyl glycine dissolved as the AEP salt. The resulting solution, (containing 28% of the active ingredient expressed as the free acid or 49.5% of the active ingredient expressed as the AEP salt) was evaluated as an aquatic herbicide and as a broad spectrum growth inhibitor for broad leaf plants and perennial weeds and compared with the isopropyl amine salt of phosphonomethyl glycine.

COc1c(Cl)ccc(Cl)c1C(=O)O.NCCN1CCCC1=O [Example 1, N-pyrrolidonyl ethyl ammonium salt of 3,6-dichloro-l-methoxy benzoic acid]
solubility in water (in words) (solubility in water; water): easily dissolved in 60% water | solubility in water (in words) (solubility in water; water, listed as Example 2): easily solubilized in water

CC(C)C1(C)N=C(c2nc3ccccc3cc2C(=O)O)NC1=O.NCCN1CCCC1=O (stereo not shown) [Example 3, N-pyrrolidonyl ethyl ammonium salt of imazaquin]
storage stability of solution ([1]; ambient conditions, stored for 6 months): stable under ambient conditions without any precipitation | precipitation after cooling and reheating ([1]; cooling to 0° C., then to room temperature): no precipitation was observed | pH of the filtrate [2]: 7.2 | dissolution of freeze-dried solid in water (solubility in water; 0.1 g in 50 g of water): dissolved completely

NCCN1CCCC1=O.O=C(O)CNCP(=O)(O)O [Example 5, N-pyrrolidonyl ethyl ammonium salt of phosphonomethyl glycerine]
soluble in water (solubility in water; isolated AEP salt): more than 50% | kill [3]: significantly higher and more permanent kill

COc1c(Cl)ccc(Cl)c1C(=O)O [reference compound]
solubility in water (in words) (solubility in water): very poor solubility | solubility (solubility in water; water): < 1000 µg/mL
